Bridge positions count the residues as written; N and C are the ends. Square brackets hold non-standard residues; d marks the D form. Peptide text beside a SMILES is read from it.
Tested on: hPADI4-stable mES cells
Test: High content microscopy of citrullinated histone H3 (H3Cit) in hPADI4-stable mES cells
Assay type: cell-based, mouse
Settings: mean H3Cit intensity, KSR/2i 3 h, range of peptide concentrations
Procedure: HaLo-GFP-mito HeLa cells were grown in DMEM (Gibco) supplemented with 10% foetal bovine serum (FBS), penicillin/streptomycin (100 µg/ml) and puromycin (1 µg/ml) at 37 °C, 5% CO2. HaLo-GFP-mito HeLa cell line[82] was profiled by short tandem repeat analysis (STR) and tested negative for mycoplasma by the Cell Services Technology Platform at the Francis Crick Institute. E14 –mouse embryonic stem cells (Cambridge Stem Cell Institute, UK) were cultured in plates coated with 1% gelatine in GMEM supplemented with 10% foetal calf serum (FCS) batch-tested for ES cell culture (Gibco), 0.1 mM non-essential amino acids, 2 mM L-glutamine, 1 mM sodium pyruvate, 0.1 mM β-mercaptoethanol and 50 ng/mL leukaemia inhibitory factor (LIF) (ESGRO, Millipore). For PADI4 activation, cells were cultured in GMEM containing 10% knockout serum replacement (KSR, Life Technologies), 1% FCS batch-tested for ES cell culture (Gibco), 0.1 mM non-essential amino acids, L-glutamine, 1 mM sodium pyruvate, 0.1 mM β-mercaptoethanol, 50 ng/mL LIF (ESGRO, Millipore), 1 μM PD0325901 (AxonMedChem) and 3 μM CHIR99021 (AxonMedChem). For the generation of E14 mES stably expressing human PADI4 (hPADI4-stable), human PADI4 cDNA was inserted into ES E14 cells using the piggyBac transposon system. The Gateway system was used to clone human PADI4 into the piggyBac vector using primers PADI4_AttB1_F and PADI4_AttB2_R (Table S4). pPB-CAG-CTRL (empty vector) or pPB-CAG-hPADI4 vectors […] were transfected with the piggyBac transposase (pPBase) expression vector, pCAGPBase […], by lipofection according to the manufacturer’s instructions (Lipofectamine 2000, Invitrogen). E14 cells constitutively expressing the hygromycin resistance gene and human PADI4 were selected and expanded in media containing […] hygromycin.
E14 cells were seeded onto 96-well PerkinElmer cell carrier ultra plates (Phenoplates) coated with 0.1% gelatine, at 25,000 cells per well and grown overnight at 37 °C, 5% CO2. Outer wells were excluded but medium was added to minimise any edge effects. […]

## N=C(N)NCCC[C@@H]1NC(=O)[C@H](CC(=O)O)NC(=O)[C@@H](Cc2ccc(O)cc2)NC(=O)CSC[C@@H](C(=O)NCC(N)=O)NC(=O)[C@H](Cc2ccc(O)cc2)NC(=O)[C@H](CCCCN)NC(=O)[C@@H]2CCCN2C(=O)[C@H](Cc2c[nH]cn2)NC(=O)[C@H](CCCNC(=N)N)NC(=O)[C@H](Cc2ccc(O)cc2)NC(=O)[C@H](Cc2c[nH]cn2)NC(=O)[C@H](Cc2c[nH]cn2)NC1=O [PADI4_3i] ({CH2CO}-[dY]DRHHYRHPKYCG-NH2; thioether N-12)
  inhibition of intracellular PADI4 (in words): no inhibition

Source: paper PMC11555231 (Nature Communications, 2024)
